Assay results taken from US4681887A, “Pharmaceutical compositions with a neuroleptic action and process for preparing same” (Richter Gedeon Vegyeszeti Gyar Rt., priority 1985, dated 1987).

What was measured:
[1] = system: conditioned avoidance response; assay: Inhibition of the conditioned avoidance response (CAR inhibition); format: in vivo, Hannover Wistar rats; details: Rattus norvegicus, po, 1 h; rats, p.o., 60 minutes before experiment
Experimental: (§1) The neuroleptic effect of the compounds was shown by investigations on the central nervous system of Hannover Wistar rats and CFLP mice. The compounds to be tested were orally administered in a dose of 5 ml/kg of body-weight to rats or in a dose of 10 ml/kg of body-weight to mice, respectively at 60 minutes before beginning the experiment.
(§2) The compounds to be tested were suspended in TWEEN 80 and diluted to the desired concentration by adding physiological saline solution.
(§3) The results are expressed either as percentages, or ED50 values calculated by using the probit analysis are given together with the 95% fiducial (confidential) limits (J. T. Litchfield and F. Wilcoxon: J. Pharmacol. 96, 99 (1949)).
Male rats weighing 140 to 160 g were conditioned for 10 days in an automated six-channel shuttle box (D. Bovet et. al.: Neuropsychopharmacology, Vol. 2., p. 142 Elsevier Publishing House, Amsterdam, 1961).
Each one session consisted of 6 cycles; the time of a partial cycle was: 15 seconds for intersignal time, 15 seconds for light stimulus, 10 seconds for light stimulus and footshock (0.8 mA). […]

[2] = target: α1-adrenergic receptor; assay: α1-adrenergic receptor binding (3H-prazosine, rat cortex); parameters: species or system Hannover Wistar rats; details: for IC50: 3H-prazosine, rat cortex, 23° C., 30 minutes; for side-effect on the α1 receptors relative to chloropromazine: from IC50 on α1 receptors
Experimental: Hannover Wistar rats were decapitated, their cortex were prepared and homogenized in a 20-fold volume of a buffer solution (50 mmoles of TRIS HCl, at pH 8). The membrane was centrifuged at 45000 g twice for 15 minutes and then suspended in the buffer in a concentration of 30 ml/g (in a protein concentration of 1.7 to 1.8 mg/ml).
After an incubation at 23° C. for 30 minutes, the samples were filtered through a Whatman GF/B filter and washed 4 times with 4 ml of buffer solution each.
For the determination of the non-specific binding, 10 μmoles of phentolamine were used.
(§4) On using both above-mentioned receptor binding methods, a scintillation solution was applied onto the filter paper in the cuvet and the isotopic radioactivity was measured on the next day.

[3] = system: amphetamine group toxicity; assay: Investigation of the amphetamine group toxicity; format: in vivo, CFLP mice; details: d-amphetamine 25 mg/kg i.p., 24 hours
Experimental: as §1, §2, §3
The method of C. D. Proctor et al. (Arch. Int. Pharmacodyn. Ther. 163, 74 (1966)) was used for this study.
The examination was carried out on mice of both sexes weighing 22 to 27 g (n=5). At the […], d-amphetamine in a dose of 25 mg/kg was intraperitoneally given to the animals tightly closed together (25 cm^2 /mouse) and the percentage of the perished animals was registered after 24 hours.

[4] = system: apomorphine hypothermia; assay: Investigation of the apomorphine hypothermia-reverting effect; format: in vivo, Hannover Wistar rats; details: rats, 10 mg/kg p.o., apomorphine 5 mg/kg i.p.
Experimental: as §1, §2, §3
The method of A. Barnett et al. (Arch. Int. Pharmacodyn. Ther. 198, 242 (1972)) was used for this study.
The rectal temperature of rats (n=5) was determined by using an Ellab thermometer (E3) before administering the substances to be tested in a dose of 10 mg/kg. Thereafter, 5 mg/kg of apomorphine were intraperitoneally given and the temperature of the animals was hourly registered for 3 hours.

[5] = system: asphyxial anoxia; assay: Investigation of the asphyxial anoxia; format: in vivo, CFLP mice; details: Mus musculus, po, 1 h; mice, survival time longer by 30% than control counted as protected
Experimental: as §1, §2, §3
The method of C. Caillard et al. (Life Sci. 16, 1607 (1975)) was used for this study.
Mice (n=5) of both sexes weighing 22 to 24 g were starved for 16 hours, then treated with 50 mg/kg dose of the substances to be tested. After 60 minutes, the animals were placed in tightly closed glass bottles of 100 ml volume and the survival time was registered.

[6] = system: hypermotility induced by L-Dopa; assay: Inhibition of the hypermotility induced by L-Dopa; format: in vivo, CFLP mice; details: mice, 30 mg/kg p.o., nialamide 40 mg/kg and L-Dopa 100 mg/kg i.p., difference from control
Experimental: as §1, §2, §3
The method of N. P. Plotnikoff et al. ("The Thyroid Axis, Drugs and Behavior", Raven Press, N.Y., pp. 103-113 (1974)) was used for this study.
Male mice (n=15) weighing 18 to 21 g were intraperitoneally treated with 40 mg/kg of nialamide and after 60 minutes, the substances to be tested were administered in a dose of 30 mg/kg. Thirty minutes later, 100 mg/kg of L-Dopa were intraperitoneally administered. The locomotor activity of the animals was measured by using an LKB Animex DSE motimeter in each 30th minute for 2 hours. The results are given as the percentage of the difference from the control.

[7] = target: T1, D-2 receptors (Rattus norvegicus, UniProt P61169); assay: D-2 receptor binding (3H-spiroperidol, rat striatum); parameters: species or system Hannover Wistar rats; details: for D-2/α1 Selectivity ratio: ratio of IC50 D-2 to IC50 α1
T1 construct: Hannover Wistar rats were decapitated and the striatum from their cortex was prepared; from tissue; host or cells: striatum membranes of Hannover Wistar rats
T1 sequence (P61169 whole entry): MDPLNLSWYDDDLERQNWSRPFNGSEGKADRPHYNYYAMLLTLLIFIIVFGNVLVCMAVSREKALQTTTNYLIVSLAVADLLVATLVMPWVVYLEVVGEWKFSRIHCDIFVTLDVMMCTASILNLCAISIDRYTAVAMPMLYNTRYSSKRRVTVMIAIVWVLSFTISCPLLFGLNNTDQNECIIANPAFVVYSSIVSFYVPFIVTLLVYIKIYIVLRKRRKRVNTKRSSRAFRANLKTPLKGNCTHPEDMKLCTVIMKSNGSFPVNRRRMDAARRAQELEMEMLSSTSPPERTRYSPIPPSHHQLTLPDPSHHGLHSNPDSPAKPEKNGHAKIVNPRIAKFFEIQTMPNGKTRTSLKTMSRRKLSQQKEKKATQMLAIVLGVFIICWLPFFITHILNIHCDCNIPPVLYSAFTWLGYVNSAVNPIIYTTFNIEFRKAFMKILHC
Experimental: Hannover Wistar rats were decapitated and the striatum from their cortex was prepared. The striata were homogenized in a 10-fold volume of a cold buffer solution (50 mmoles of TRIS HCl, 120 mmoles of NaCl, 2 mmoles of KCl, 1 mmoles of MgCl2 and 5 mmoles of CaCl2, at pH 7.4) and centrifuged at 40000 g for 15 minutes. The thus-obtained sediment was suspended in the buffer in a concentration of 100 ml/g (in a protein concentration of 0.7 to 0.8 mg/ml).
After an incubation at 37° C. for 15 minutes, the samples were filtered through a Whatman GF/B filter and washed 2 times with 5 ml of buffer solution each.
For the determination of the non-specific binding, 1 μmole of (+)-butaclamol was used.
as §4

[8] = system: catalepsy; assay: Investigation of the cataleptogenic effect; format: in vivo, Hannover Wistar rats; details: Rattus norvegicus, po; rats, observed hourly for 5 hours
Experimental: as §1, §2, §3
The method of G. Stille and H. Launer Arzneim.-forsch. 21, 252 (1971) was used for this study.
Male rats weighing 90 to 110 g (n=5) were treated with different doses of the compounds to be tested, then the number of the animals showing catalepsy was hourly observed for 5 hours.

[9] = system: central dopaminergic; details: Acta Pharm. Suec. 1983, 111-119; cited from earlier work

SMILES	ED50 [1]	IC50 [2]	Apomorphine hypothermia, difference of temperature change vs apomorphine (60 min.) [4]	Apomorphine hypothermia, difference of temperature change vs apomorphine (120 min.) [4]	ED50 [5]	L-Dopa induced hypermot. inhibition % (60 min.) [6]	L-Dopa induced hypermot. inhibition % (120 min.) [6]	IC50 [7]	D-2/α1 Selectivity ratio [7]	ED50 [8]	side-effect on the α1 receptors relative to chloropromazine [2]	central dopaminergic agonist activity [9]	also measured
CN1C[C@H](CO)C=C2c3cccc4[nH]c(Br)c(c34)C[C@H]21.O=C(O)/C=C\C(=O)O [2-Bromolysergol maleate]	2.7 mg/kg	24.1 nM	+1.9 °C	+2.4 °C	35.6 mg/kg	-60%	-65%	76.5 nM	3.2	10.8 mg/kg	–	–	Amphetamine group tox., mice died (footnote *) ([3]; 20 mg/kg p.o.): 10%
CCN(CC)C(=O)NC1C=C2c3cccc4[nH]c(Br)c(c34)CC2N(C)C1 (stereo not drawn) [2-Bromolysuride, reference compound]	–	–	–	–	–	–	–	–	–	3.3 mg/kg	–	–	–
CN1C[C@H](CO)C=C2c3cccc4[nH]c(Cl)c(c34)C[C@H]21.O=C(O)/C=C\C(=O)O [2-Chlorolysergol maleate]	3.4 mg/kg	45.4 nM	+0.9 °C	+1.1 °C	39.8 mg/kg	-47%	-50%	5.3 nM	0.12	13.6 mg/kg	–	–	ED50 ([3]; Mus musculus, po, mice, p.o., read-out: Amphetamine group tox. ED50): 28.9 mg/kg
CN1C[C@H](CO)C=C2c3cccc4[nH]c(Br)c(c34)C[C@H]21 [2-bromolysergol]	–	–	–	–	–	–	–	–	–	–	somewhat lower	inactive	–
CN1C[C@H](CO)C=C2c3cccc4[nH]c(Cl)c(c34)C[C@H]21 [2-chlorolysergol]	–	–	–	–	–	–	–	–	–	–	one-third	inactive	D-2/α1 selectivity ratio relative to chloropromazine [7]: ten times lower; dopaminergic (D-2) activity relative to chloropromazine ([7]; from IC50 on D-2 receptors): three times as high
CN(C)CCCN1c2ccccc2Sc2ccc(Cl)cc21 [Chloropromazine, reference compound]	–	15.8 nM	–	–	–	–	–	–	–	–	–	–	–
